Reference: patent US7550257B2, “Process for identifying substances which modulate the activity of hyperpolarization-activated cation channels” (Sanofi-Aventis Deutschland GmbH, priority 2000, dated 2009)

Key:
muHCN2 [1] = target: T1, muHCN2 (Mus musculus, UniProt O88703); test: FLIPR membrane potential assay (DiBac4(3)) with transfected HCN cells; assay type: cell-based, murine; conditions: muHCN2-transfected CHO cells, relative change in fluorescence from the time 60 seconds, mean of 6 wells per concentration, read-out: IC50 of zatebradine (inhibition calculated from relative change in fluorescence)
T1 construct: expressed in transfected cells
T1 sequence (O88703 1-863): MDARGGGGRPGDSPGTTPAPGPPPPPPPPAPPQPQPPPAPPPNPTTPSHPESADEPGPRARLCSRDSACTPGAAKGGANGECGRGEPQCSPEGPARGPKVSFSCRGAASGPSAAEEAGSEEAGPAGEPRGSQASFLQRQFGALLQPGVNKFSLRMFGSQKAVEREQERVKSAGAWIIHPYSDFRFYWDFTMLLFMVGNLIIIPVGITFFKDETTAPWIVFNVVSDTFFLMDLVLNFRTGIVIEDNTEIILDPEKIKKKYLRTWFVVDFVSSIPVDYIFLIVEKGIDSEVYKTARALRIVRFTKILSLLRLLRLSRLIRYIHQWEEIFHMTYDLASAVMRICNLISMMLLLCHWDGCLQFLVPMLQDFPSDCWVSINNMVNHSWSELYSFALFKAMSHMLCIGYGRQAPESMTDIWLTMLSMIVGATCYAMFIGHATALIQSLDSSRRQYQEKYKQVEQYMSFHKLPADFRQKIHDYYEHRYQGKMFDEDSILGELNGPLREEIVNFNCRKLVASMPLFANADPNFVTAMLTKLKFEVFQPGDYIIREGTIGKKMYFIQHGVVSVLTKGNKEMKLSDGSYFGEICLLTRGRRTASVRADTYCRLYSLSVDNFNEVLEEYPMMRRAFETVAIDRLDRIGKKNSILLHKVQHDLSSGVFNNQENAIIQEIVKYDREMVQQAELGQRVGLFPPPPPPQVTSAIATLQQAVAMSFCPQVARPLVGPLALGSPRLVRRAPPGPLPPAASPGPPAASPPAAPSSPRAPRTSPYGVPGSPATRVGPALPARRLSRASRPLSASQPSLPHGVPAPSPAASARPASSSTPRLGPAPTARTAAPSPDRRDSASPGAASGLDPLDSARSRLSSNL
Description: The cells seeded on the microtiter plates are washed in an isoosmolar buffer in which NaCl has been replaced by choline chloride. However, this wash buffer also contains 5 mM KCl, since extracellular K^+ is important for HCN activation (Biel et al. 1999). This wash buffer, which serves to effect hyperpolarization of the HCN cells, also contains 5 μM DiBac4(3) for measuring changes in the membrane potential in the FLIPR. By removing the extracellular Na^+, the cells are hyperpolarized, i.e. the HCN is activated. However, the HCN is not capable of causing depolarization of the cells, since the required concentration gradient of the ions Na^+ or K^+ transported by HCN is missing. […] This is reflected in the fact that the initial fluorescence measured for HCN cells in the FLIPR at 10 μM forskolin is lower than that without forskolin, whereas there is no difference in nontransfected cells.
Since DiBac4(3) fluorescence may be sensitive to temperature variations, the measurement is, after an incubation at 37° C. for 30 minutes, carried out as quickly as possible—cooling of the dye solution may affect the measured results. […]
In the FLIPR, Na^+ is added to the cells so that the activated HCN (after a few seconds, in which there are mixing effects) causes, from about 15 seconds after the addition of Na^+, depolarization of the cells, which becomes visible by an increase in fluorescence. […]

muHCN2 [2] = target: T1, muHCN2; test: Patch-clamp (electrophysiological) examination in the same cells; assay type: cell-based, murine; conditions: determined electrophysiologically in the same cells
Description: Using the patch-clamp method, the cells with detectable mRNA expression were examined electrophysiologically, in the whole-cell configuration, for functional expression of muHCN2. This method is described in detail in Hamill et al (1981), which is incorporated herein by reference. The cells were clamped to a holding potential of −40 mV. Starting with this holding potential, the ion channels were activated by a voltage change to […] for a period of one second. The current amplitude was determined the end of this pulse. Among the transfected HEK cells, some were found having currents of about 1 nA; however, owing to interfering endogenous currents, it was not possible to construct an assay for these cells in the FLIPR.
Electrophysiologically, currents of up to 11 nA were measured. These cells were used for constructing an FLIPR assay for HCN2.
Using the transfected HCN cells, the effect of various concentrations of the substance zatebradine, which is known as an If blocker, were examined. The inhibition by zatebradine was calculated from the relative change in fluorescence from the time 60 seconds. For each concentration of the inhibitor, the mean of in each case 6 wells of the microtiter plate was determined.

IC50 (muHCN2 [1]): 26 µM | IC50 (muHCN2 [2]): 31 µM
SMILES: COc1ccc(CCN(C)CCCN2CCc3cc(OC)c(OC)cc3CC2=O)cc1OC [zatebradine, 3-[3-[[2-(3,4-dimethoxyphenyl)ethyl]methylamino]propyl]-1,3,4,5-tetrahydro-7,8-dimethoxy-2H-3-benzazepin-2-one]
